Experimental data as given in patent US20160075689A1, “POLYMERASE, ENDONUCLEASE, AND HELICASE INHIBITORS AND METHODS OF USING THEREOF” (THE BOARD OF TRUSTEES OF THE UNIVERSITY OF ARKANSAS, priority 2013, published 2016).
Where “and” joins values, the source holds several entries; their conditions need not be identical. Equal entries are not always repeated.

Columns and labels:
[1] = biological target: T1, NS3 helicase (Hepatitis C virus genotype 1b, UniProt P26663); test: Gel-based helicase assay; type: biochemical, HCV; conditions: standard helicase assay
T1 construct: analyze the helicase activity of NS3 helicase in the presence of the compounds; made in house
T1 sequence (P26663 1027-1657): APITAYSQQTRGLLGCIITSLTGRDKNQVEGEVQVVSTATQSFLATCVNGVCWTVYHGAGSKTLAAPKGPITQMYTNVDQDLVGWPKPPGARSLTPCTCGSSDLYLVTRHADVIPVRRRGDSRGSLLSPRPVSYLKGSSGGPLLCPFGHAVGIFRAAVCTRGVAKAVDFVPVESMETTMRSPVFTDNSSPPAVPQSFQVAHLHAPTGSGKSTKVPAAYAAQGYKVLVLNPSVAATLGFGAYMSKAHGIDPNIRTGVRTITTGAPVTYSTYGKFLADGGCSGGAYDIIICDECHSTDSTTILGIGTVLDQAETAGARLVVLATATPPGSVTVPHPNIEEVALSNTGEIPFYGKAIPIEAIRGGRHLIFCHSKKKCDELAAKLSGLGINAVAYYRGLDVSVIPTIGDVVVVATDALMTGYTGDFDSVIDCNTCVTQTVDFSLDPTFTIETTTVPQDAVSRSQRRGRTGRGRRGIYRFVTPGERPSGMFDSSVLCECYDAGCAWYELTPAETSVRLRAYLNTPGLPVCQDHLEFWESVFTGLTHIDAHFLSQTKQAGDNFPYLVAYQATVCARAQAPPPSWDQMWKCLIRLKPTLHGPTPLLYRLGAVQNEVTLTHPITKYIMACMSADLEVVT
Experimental: Benchtop unwinding assays were performed to analyze the helicase activity of NS3 helicase in the presence of the compounds. The unwinding reaction was initiated by mixing the right (N53, compound, assay buffer) and left (radiolabeled substrate, ATP, assay buffer) reactions, which was then quenched. The ssDNA product formed over time is separated from dsDNA substrate by 20% native PAGE. The ratio of dsDNA substrate to ssDNA product is quantified using ImageQuant and the fraction of substrate unwound at each time-point is plotted as a function of time using Kaleidagraph software.

[2] = biological target: NS3-4A (Hepatitis C virus genotype 1b, UniProt P26663); test: NS3 protease activity assay; type: biochemical, HCV; conditions: 25 μM compound, 50 nM NS3-4A, 100 nM substrate
NS3-4A, sequence (P26663 1027-1657): as above
NS3-4A, sequence (P26663 1658-1711): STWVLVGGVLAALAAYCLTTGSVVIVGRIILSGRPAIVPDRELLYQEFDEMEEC
Experimental: The protease activity of NS3 was analyzed in the presence of 25 μM ITBA-3-79, ITBA-3-82 or ITBA-3-85 by using 50 nM NS3-4A and 100 nM substrate (Ac-Asp-Glu-Asp-EDANS-Glu-Glu-Abu-L-Lactoyl-Ser-Lys DABCYL-NH2). The emission spectra of EDANS and the absorption spectra of DABCYL overlap making the peptide internally quenched. Cleaving of the substrate by the protease results in an increase in fluorescence that can be measured (λex−355 nm; λem, −500 nm). Telapravir (10 μM) was used as a positive control.

[3] = biological target: T2, HCV NS3 helicase (Hepatitis C virus genotype 1b, UniProt P26663); test: Fluorescence-based helicase assay; type: biochemical; conditions: IC50 for inhibition of NS3 helicase, mean ± standard deviation of three data sets
T2 construct: analyze the helicase activity of NS3 helicase in the presence of the compounds; made in house
T2 sequence (P26663 1027-1657): as the sequence (P26663 1027-1657) above
Experimental: A library of compounds was screened using a previously validated quantitative assay that measures helicase activity over time. The assay relies upon helicase-catalyzed displacement of a fluorescently-labeled oligonucleotide (FIG. 13A). The concentration of enzyme and compounds used was 250 nM and 20 μM respectively. The experiments were performed in triplicate. […] Three potential helicase inhibitors were identified using the fluorescence based assay. […] The inhibitor compounds identified in our screen were ITBA-3-79, ITBA-3-82 and ITBA-3-85 (FIG. 14A). […] The IC50 value for ITBA-3-79, ITBA-3-82 and ITBA-3-85-mediated inhibition of NS3 helicase ranged˜20 μM (FIG. 14C). The ATPase activity of NS3 (50 μM) was analyzed in the presence of ITBA-3-79, ITBA-3-82 and ITBA-3-85 using a coupled spectrophotometric assay (Raney and Benkovic 1995, (FIG. 15). The protease activity of NS3 was analyzed in the presence of ITBA-3-79, ITBA-3-82 and ITBA-3-85 by using 50 nM NS3-4A and 100 nM substrate (Ac-Asp-Glu-Asp-EDANS-Glu-Glu-Abu-L-Lactoyl-Ser-Lys DABCYL-NH2, FIG. 15. The NS3 helicase activity was analyzed in the presence of 25 μM ITBA-3-79, ITBA-3-82 and ITBA-3-85 (FIG. 16).
A fluorescence based quantitative assay that measures helicase activity over time was employed to screen the compounds. The concentration of enzyme and compounds used was 250 nM and 20 μM respectively. Helicase catalyzes the unwinding of a FAM-labeled dsDNA and the resulting increase in fluorescence is plotted (λex-485 nm; λem, −528 nm). The slope of the initial part of the plot was used to calculate the percentage helicase activity. […] The IC50 value for ITBA-3-79, ITBA-3-82 and ITBA-3-85-mediated inhibition of NS3 helicase was determined using the same assay.

[4] = tested on: RNase A; test: Ribonuclease A activity in NRK-52E cell extract; type: biochemical; conditions: 0.1 μM and 10 μM
Experimental: (§1) As a follow up to Example 8, the effects of the EndoG inhibitors PNR-3-80 and PNR-3-82, at 0.1 μM and 10 μM each, on the activities of four other enzymes including RNase A, protease, LDH, and SOD in NRK-52E cell extract were examined. NRK-52E cells were grown to ˜80% confluence in […]. The medium was aspirated and the cells were rinsed with ice cold 1×PBS, pH 7.4. The cells were lysed in 50 mM Tris-HCl, pH 7.4, 150 mM NaCl, 1% Triton X-100 for 10 min on ice and then briefly sonicated. Cell debris was removed by centrifugation at 13,000×g for 10 min at 4° C. The supernatant was collected and stored at −80° C. until use. LDH, Protease, Superoxide dismutase (SOD), and Ribonuclease A (RNase A) activities were measured by using CytoTox 96® Non-Radioactive Cytotoxicity Assay kit (Promega, Madison, Wis.), Protease Fluorescent Detection kit (Sigma-Aldrich, Saint Louis, Mo.), SOD determination kit (Sigma-Aldrich, Saint Louis, Mo.), and Ribonuclease A Detection kit (Sigma-Aldrich, Saint Louis, Mo.), respectively, according to the manufacturer's instructions.

[5] = tested on: EndoG-expressing PC3 cells; test: Cytoprotection against Docetaxel-induced cell death, LDH release and TUNEL assays; type: cell-based, human; conditions: Docetaxel 80 μM, inhibitor 50 μM
Experimental: Docetaxel is an anti-cancer drug used to treat prostate cancer. Human invasive prostate cancer PC3 cells are known to be resistant to anticancer drugs. […] The resulting EndoG-expressing PC3 cells were exposed with Docetaxel (80 μM) in the absence or presence of the inhibitors, PNR-3-80 or PNR-3-82 (50 μM each). The cell death was measured by using two methods, LDH release assay and TUNEL assay. […]

[6] = tested on: 22Rv1 cells; test: Cytoprotection against Cisplatin-induced cell death, LDH release assay; type: cell-based, human; conditions: Cisplatin 60 μM, inhibitor 50 μM
Experimental: To test cytotoxic activities of the inhibitors, human prostrate carcinoma epithelial 22Rv1 cells, which naturally express EndoG, were exposed to Cisplatin (60 μM) in the presence or absence of PNR-3-80 (50 μM) and cell death was measured by the LDH release assay.

[7] = tested on: LDH; test: LDH activity in NRK-52E cell extract; type: biochemical; conditions: 0.1 μM and 10 μM
Experimental: as §1

[8] = tested on: protease; test: Protease activity in NRK-52E cell extract; type: biochemical; conditions: 0.1 μM and 10 μM
Experimental: as §1

[9] = tested on: SOD; test: SOD activity in NRK-52E cell extract; type: biochemical; conditions: 0.1 μM and 10 μM
Experimental: as §1

[10] = biological target: T3, EndoG (Homo sapiens, UniProt Q14249); test: Plasmid incision assay; type: biochemical; conditions: agarose gel, FIG. 9
T3 sequence (Q14249 49-297): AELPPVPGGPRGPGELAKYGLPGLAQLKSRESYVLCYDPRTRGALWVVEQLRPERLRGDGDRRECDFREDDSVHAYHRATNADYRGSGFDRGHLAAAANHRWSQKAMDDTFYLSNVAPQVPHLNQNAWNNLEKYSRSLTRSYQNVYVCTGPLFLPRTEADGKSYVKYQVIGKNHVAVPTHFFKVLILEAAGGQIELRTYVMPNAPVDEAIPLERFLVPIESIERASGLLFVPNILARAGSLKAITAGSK
Experimental: A reaction mixture was prepared containing 0.5 μg pECFP plasmid DNA, 2 mM CaCl2, 5 mM MgCl2, 10 mM Tris-HCl, pH 7.4, 0.5 mM dithiothreitol. The test compound [50 ng in DMSO (1 μl)] was added. Recombinant EndoG was then added to the final concentration of 200 ng/ml and the reaction was incubated for 1 h at 37° C. The reaction was terminated by adding 2 μl of 10 mM Tris-HCl, pH 7.4, 1% SDS, 25 mM EDTA, 7.2 mM bromophenol blue. The samples were run in 1% agarose gel in Tris-acetate-EDTA buffer (40 mM Tris, 20 mM acetic acid, 1 mM EDTA, pH 8), at 7 V/cm for 35 min, and DNA was stained with ethidium bromide. An EagleEye scanning densitometer (Stratagene, La Jolla, Calif.) was utilized to quantify the relative amount of endonuclease-treated plasmid DNA present in a covalently-closed circular (supercoiled) DNA, open circular DNA, or linear DNA, or in a digested form.

[11] = biological target: T4, DNase II (Homo sapiens, UniProt O00115); test: Endonuclease screening assay, specificity; type: biochemical
T4 sequence (O00115 19-360): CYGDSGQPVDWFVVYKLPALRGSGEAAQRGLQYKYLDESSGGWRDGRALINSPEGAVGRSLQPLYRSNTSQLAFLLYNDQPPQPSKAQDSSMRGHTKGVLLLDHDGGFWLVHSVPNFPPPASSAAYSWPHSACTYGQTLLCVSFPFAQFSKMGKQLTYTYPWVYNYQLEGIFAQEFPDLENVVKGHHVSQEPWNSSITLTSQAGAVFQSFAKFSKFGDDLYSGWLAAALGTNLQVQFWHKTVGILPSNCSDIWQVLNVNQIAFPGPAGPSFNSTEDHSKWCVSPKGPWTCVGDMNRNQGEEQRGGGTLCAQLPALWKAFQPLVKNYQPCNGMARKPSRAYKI
From the text: (§2) Specificity of a potential inhibitor is important for any in vitro or in vivo application, and generally defines the usefulness of an inhibitor. To determine specificity of the inhibitors for the two EndoG inhibitors, PNR-3-80 and PNR-3-82, their IC50 values for EndoG were compared using the screening assay with the IC50 values for two other endonucleases, DNase I and DNAse II (FIG. 11). These endonucleases were chosen because they represent the majority of endonuclease activity in most mammalian cells and because of their availability as pure enzymes.
(§3) A reaction mixture was prepared in each well of a white 96-well plate (Costar, Corning, N.Y.) as follows: 0.25 μM Cy5.5-labeled oligonucleotide (described in US provisional patent filed Oct. 19, 2012, Ser. No. 61/716,097) 0.3 mM MgCl2, 10 mM Tris-HCl, pH 7.4, 1 μl DMSO containing 5 or 50 ng of test compound, and nuclease-free water for a total reaction volume of 100 μl. The background (negative control) and uninhibited EndoG samples were measured using DMSO only, or DMSO containing recombinant EndoG (4 μg/ml), respectively. After addition of EndoG, fluorescence intensity was kinetically measured on a Bio-Tek Synergy 4.0 plate reader at 37° C. and mean velocity (mRFU/min) within 20 min was automatically calculated by the plate reader. The background was subtracted prior to the calculation of EndoG activity (%). The percent of EndoG activity was calculated from the mean velocity of a compound divided by the mean velocity of DMSO with recombinant EndoG, and the obtained value multiplied by 100.

[12] = biological target: T5, DNase I (Homo sapiens, UniProt P24855); test: Endonuclease screening assay, specificity; type: biochemical
T5 sequence (P24855 23-282): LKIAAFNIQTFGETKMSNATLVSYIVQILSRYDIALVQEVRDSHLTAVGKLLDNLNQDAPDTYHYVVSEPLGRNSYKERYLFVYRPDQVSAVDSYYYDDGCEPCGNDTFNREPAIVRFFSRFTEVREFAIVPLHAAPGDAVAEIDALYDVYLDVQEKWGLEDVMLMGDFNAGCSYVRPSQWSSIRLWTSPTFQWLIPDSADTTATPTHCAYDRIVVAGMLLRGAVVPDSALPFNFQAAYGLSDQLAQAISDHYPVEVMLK
From the text: as §2, §3

[13] = biological target: T3, EndoG; test: High-throughput EndoG screening assay; type: biochemical
Experimental: as §3

Compound | NS3 helicase activity, gel electrophoresis [1] | NS3 protease activity [2] | IC50 [3] | RNase A activity [4] | cytoprotection against Docetaxel-induced cell death [5] | inhibition of Cisplatin-induced cell death [6] | inhibition of Cisplatin-induced cell death ([6]; listed as P-NR-30) | LDH activity [7] | protease activity [8] | SOD activity [9] | protection of supercoiled plasmid DNA from degradation by EndoG [10] | effect on DNase II activity [11] | IC50 [12] | remaining activity at 1 µM ([13]; 20 min, compound 1 μM, read-out: % EndoG activity in the presence of the compound) | IC50 ([13]; IC50 against EndoG, EndoG screening assay)
O=C1NC(=S)NC(=O)C1=Cc1cn(C(=O)c2ccc3ccccc3c2)c2ccccc12 [ITBA-3-79] | confirmed the inhibition | do not block protease activity | ~20 µM and 21.6 µM | – | – | – | – | – | – | – | – | – | – | – | –
O=C1NC(=S)NC(=O)C1=Cc1cn(C(=O)c2ccc3ccccc3c2)c2ccc(Cl)cc12 [PNR-3-80] | – | – | – | none of the two tested compounds had any inhibiting activity | cytoprotective | significant and complete inhibition | complete inhibition | none of the two tested compounds had any inhibiting activity | none of the two tested compounds had any inhibiting activity | none of the two tested compounds had any inhibiting activity | significantly protected the plasmid DNA from degradation | did not have any effect | 11.2 µM | 36% | 0.671 µM and 0.67 µM
COc1ccc2c(c1)c(C=C1C(=O)NC(=S)NC1=O)cn2C(=O)c1cccc2ccccc12 [ITBA-3-85] | confirmed the inhibition | do not block protease activity | ~20 µM and 23.5 µM | – | – | – | – | – | – | – | – | – | – | – | –
